According to patent US10703764B2, “Benzopiperazine compositions as BET bromodomain inhibitors” (FORMA Therapeutics, Inc., priority 2013, dated 2020):
Like-named read-outs stand apart in the source and are kept apart here.

Assays:
BRD4 BD1 = molecular target: T1, BRD4 BD1 (Homo sapiens, UniProt O60885); assay: AlphaScreen binding assay, BRD4 Bromodomain 1
T1 construct: made in house
How it was run: (§1)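 An AlphaScreen competition format was used with His-BRD4 BD1 or BD2 and biotin-H4 K5/8/12/16-acetyl peptide, each at matched final levels of 50 nM (BD1) or 100 nM (BD2). Incubation in HEPES/NaCl buffer with 0.1% BSA and 0.01% Triton X-100 ran ≥1 h before IC50 determination.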

BRD4 BD2 = molecular target: T2, BRD4 BD2 (Homo sapiens, UniProt O60885); assay: AlphaScreen binding assay, BRD4 Bromodomain 2
T2 construct: made in house
How it was run: as §1

MV4-11 cells = assay: Oncology cell growth assay (3-day proliferation, CellTiter-Glo); assay type: cell-based; conditions: Homo sapiens, AML cell line MV4-11, 72 hours, compounds grouped by IC50 range, read-out: MV4-11 IC50 (inhibition of proliferation, gIC50)
How it was run: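 Compounds were serially diluted 3-fold in DMSO, giving final well concentrations from 10 down to 0.0045 μM. MV4-11 cells were then seeded at 3000 cells/well in RPMI 1640 with 10% FBS and incubated 72 hours. CellTiter-Glo signal was measured and gIC50 obtained by four-parameter logistic regression.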

SMILES	IC50 (BRD4 BD1) [nM]	IC50 (BRD4 BD2) [nM]	IC50 (MV4-11 cells; MV4-11, 72 h) [nM]	IC50 (MV4-11 cells) [nM]
CC(=O)N1c2ccc(-c3ccc(S(=O)(=O)NC(C)C)cc3)cc2N(C(=O)c2ccco2)C[C@@H]1C [Example I-274]	1000 to 10000	< 50	100 to 500	
CC(=O)N1c2ccc(-c3cnn(C4CCCS(=O)(=O)C4)c3)cc2N(C(=O)OC2CCC2)C[C@@H]1C (stereo partly drawn) [Example I-158, cyclobutyl (3S)-4-acetyl-7-[1-(1,1-dioxo-16-thian-3-yl)-1H-pyrazol-4-yl]-3-methyl-1,2,3,4-tetrahydroquinoxaline-1-carboxylate]	100 to 1000	< 50	100 to 500	
COC(=O)N1c2ccc(-c3ccc(N4CCS(=O)(=O)CC4)cc3)cc2N(C(=O)C2CC2)C[C@@H]1C [Example I-455]	100 to 1000	50 to 500	100 to 500	
COC(=O)N1c2ccc(-c3cnn(C4CC4)c3)cc2N(C(=O)C2CC2)C[C@@H]1C [Example I-42, (S)-methyl 4-(cyclopropanecarbonyl)-6-(1-cyclopropyl-1H-pyrazol-4-yl)-2-methyl-3,4-dihydroquinoxaline-1 (2H)-carboxylate]	100 to 1000	50 to 500		100 to 500
COc1ccc(-c2ccc3c(c2)N(C(=O)OC2CCOCC2)C[C@H](C)N3C(C)=O)cc1NS(C)(=O)=O [Example I-1272]	100 to 1000	50 to 500	100 to 500	
CC(=O)N1c2ccc(-c3ccc(S(=O)(=O)C4CC4)cc3)cc2N(C(=O)OC(C)C)C[C@@H]1C [Example I-1034]	100 to 1000	50 to 500	100 to 500	
COC(=O)Nc1cc2c(cc1-c1cnn(C3CC3)c1)N(C(=O)OC(C)C)C[C@H](C)N2C(C)=O [Example I-204, Isopropyl (S)-4-acetyl-7-(1-cyclopropyl-1H-pyrazol-4-yl)-6-((methoxycarbonyl)amino)-3-methyl-3,4-dihydroquinoxaline-1(2H)-carboxylate]	100 to 1000	50 to 500	> 500	
CC(=O)N1c2ccc(-c3cnn(Cc4cccnc4)c3)cc2N(C(=O)C2CC2)C[C@@H]1C [Example I-122, (S)-1-(4-(cyclopropanecarbonyl)-2-methyl-6-(1-(pyridin-3-ylmethyl)-1H-pyrazol-4-yl)-3,4-dihydroquinoxalin-1(2H)-yl)ethan-1-one]	100 to 1000	< 50	100 to 500	
CCCCOC(=O)N1C[C@H](C)N(C(C)=O)c2ccc(-c3ccc(S(C)(=O)=O)cc3)cc21 [Example I-231]	100 to 1000	50 to 500	100 to 500	
CCOC(=O)N1C[C@H](C)N(C(C)=O)c2ccc(-c3ccc(S(=O)(=O)N(C)C)cc3)cc21 [Example I-1125]	1000 to 10000	50 to 500	100 to 500	
CC(=O)N1c2ccc(-c3ccc(N(C)S(C)(=O)=O)cc3)cc2N(C(=O)Oc2cccnc2)C[C@@H]1C [Example I-1292]	100 to 1000	50 to 500	100 to 500	
CC(=O)N1c2ccc(-c3ccc(S(=O)(=O)CCN)cc3)cc2N(C(=O)OC(C)C)C[C@@H]1C [Example I-477]	100 to 1000	< 50	100 to 500	
CC(=O)N1c2ccc(-c3cnn(C4CCCS(=O)(=O)C4)c3)cc2N(C(=O)OC2CCCC2)C[C@@H]1C (stereo partly drawn) [Example I-1148]	100 to 1000	< 50	100 to 500	

Continued, in another order:

IC50 (BRD4 BD1) [nM]	IC50 (BRD4 BD2) [nM]	IC50 (MV4-11 cells; MV4-11, 72 h) [nM]	SMILES	IC50 (MV4-11 cells) [nM]
100 to 1000	50 to 500	100 to 500	CNC(=O)CN(C)C(=O)c1ccc(-c2ccc3c(c2)N(C(=O)OC(C)C)C[C@H](C)N3C(=O)C2CC2)cc1 [Example I-562]	
100 to 1000	< 50	< 100	CC(=O)N1c2ccc(-c3ccc(NS(C)(=O)=O)cc3)cc2N(C(=O)c2ccco2)C[C@@H]1C [Example I-279]	
100 to 1000	50 to 500	> 500	CC(=O)N1c2ccc(-c3cnn(CC(C)(C)O)c3)cc2N(C(=O)OC2CC(F)(F)C2)C[C@@H]1C [Example I-28, (S)-3,3-difluorocyclobutyl 4-acetyl-7-(1-(2-hydroxy-2-methylpropyl)-1H-pyrazol-4-yl)-3-methyl-3,4-dihydroquinoxaline-1(2H)-carboxylate]	
100 to 1000	50 to 500	100 to 500	CC(=O)N1c2ccc(-c3cnn(C4CC4)c3)cc2N(C(=O)OC2COC2)C[C@@H]1C [Example I-997]	
100 to 1000	50 to 500	100 to 500	CCCS(=O)(=O)c1ccc(-c2ccc3c(c2)N(C(=O)OC(C)C)C[C@H](C)N3C(C)=O)cc1 [Example I-1073]	
< 100	< 50	100 to 500	CC(=O)N1c2ccc(-c3cnn(C4COC4)c3)cc2N(C(=O)Oc2ccccn2)C[C@@H]1C [Example I-91, (S)-pyridin-2-yl 4-acetyl-3-methyl-7-(1-(oxetan-3-yl)-1H-pyrazol-4-yl)-3,4-dihydroquinoxaline-1(2H)-carboxylate]	
